# Test results taken from patent US10562891B2, “Quinazolinones as PARP14 inhibitors” (Ribon Therapeutics Inc., priority 2017, dated 2020).
# pIC50: −log10 of the molar value. Counter-ions that a name gives are not always drawn.
# Target: catalytic domain of human PARP14 (Homo sapiens (Human), UniProt Q460N5)
# Assay: Enzymatic assay for inhibition of PARP14 (DELFIA, auto-modification with biotin-NAD)
# Format: biochemical
# Settings: auto-modification of PARP14 by biotin-NAD, 50 nM PARP14, 3 μM biotin-NAD
# Procedure, shortened: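 DELFIA auto-modification read-out: europium-streptavidin bound to biotin-NAD incorporated onto nickel-captured His-TEV PARP14 catalytic domain. Compound preincubated 30 min, then 50 nM enzyme with 3 μM biotin-NAD reacted 3 h, all at 25 °C, pH 8, then NAD quench. Percent inhibition normalized to rucaparib/DMSO wells, fitted (4- or 3-parameter) for IC50.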
# catalytic domain of human PARP14, sequence (Q460N5 1611-1801): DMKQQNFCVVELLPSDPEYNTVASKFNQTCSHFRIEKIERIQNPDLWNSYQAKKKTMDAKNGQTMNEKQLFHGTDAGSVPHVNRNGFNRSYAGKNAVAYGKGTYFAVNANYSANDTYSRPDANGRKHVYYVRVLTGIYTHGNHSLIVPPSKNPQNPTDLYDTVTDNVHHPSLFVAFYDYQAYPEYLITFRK
row,SMILES,pIC50
1,"Cc1cccc2c(=O)[nH]c(CS[C@H]3CC[C@H](CCN)CC3)nc12 [Example 181, 2-((((trans)-4-(2-aminoethyl)cyclohexyl)thio)methyl)-8-methylquinazolin-4(3H)-one]",> 6.00
2,"Cc1cccc2c(=O)[nH]c(CSC3CC(CN)C3)nc12 (centres unmarked) [Example 182, 2-(((3-(aminomethyl)cyclobutyl)thio)methyl)-8-methylquinazolin-4(3H)-one]",5.00 to 6.00
3,"O=c1[nH]c(CSC2CCOCC2)nc2cc(NC3CCCC3)cc(F)c12 [Example 184, 7-(cyclopentylamino)-5-fluoro-2-(((tetrahydro-2H-pyran-4-yl)thio)methyl)quinazolin-4(3H)-one]",> 6.00
4,"O=c1[nH]c(CS[C@H]2CC[C@H](O)CC2)nc2cc(NC3CCCC3)cc(F)c12 [Example 185, 7-(cyclopentylamino)-5-fluoro-2-((((1R,4R)-4-hydroxycyclohexyl)thio)methyl)quinazolin-4(3H)-one]",> 6.00
5,"O=c1[nH]c(CSC2CCOCC2)nc2nc(NC3CCCC3)ccc12 [Example 186, 7-(cyclopentylamino)-2-(((tetrahydro-2H-pyran-4-yl)thio)methyl)pyrido[2,3-d]pyrimidin-4(3H)-one]",> 6.00
6,"O=c1[nH]c(CSC2CCOCC2)nc2cc(N[C@H]3CCCOC3)ccc12 [Example 187, (S)-7-((tetrahydro-2H-pyran-3-yl)amino)-2-(((tetrahydro-2H-pyran-4-yl)thio)methyl)quinazolin-4(3H)-one]",> 6.00
7,"O=c1[nH]c(CSC2CCOCC2)nc2cc(NC3CCCC3)cnc12 [Example 188, 7-(cyclopentylamino)-2-(((tetrahydro-2H-pyran-4-yl)thio)methyl)pyrido[3,2-d]pyrimidin-4(3H)-one]",< 5.00
8,"O=c1[nH]c(CSC2CCOCC2)nc2cc(NC3CCCC3)ncc12 [Example 189, 7-(cyclopentylamino)-2-(((tetrahydro-2H-pyran-4-yl)thio)methyl)pyrido[4,3-d]pyrimidin-4(3H)-one]",5.00 to 6.00
9,"O=c1[nH]c(CSC2CCCNCC2)nc2cc(NC3CCCC3)ccc12 (centres unmarked) [Example 190, 2-((azepan-4-ylthio)methyl)-7-(cyclopentylamino)quinazolin-4(3H)-one]",> 6.00
10,"Cc1cccc2c(=O)[nH]c(CSC3CCC(CN)C3)nc12 (centres unmarked) [Example 191, 2-(((3-(aminomethyl)cyclopentyl)thio)methyl)-8-methylquinazolin-4(3H)-one]",5.00 to 6.00
11,"Cc1cc(Nc2ccc3c(=O)[nH]c(CSC4CCOCC4)nc3c2)on1 [Example 192, 7-((3-methylisoxazol-5-yl)amino)-2-(((tetrahydro-2H-pyran-4-yl)thio)methyl)quinazolin-4(3H)-one]",> 6.00
12,"CS(=O)(=O)N1CCC[C@@H](Nc2ccc3c(=O)[nH]c(CSC4CCOCC4)nc3c2)C1 [Example 193, (R)-7-((1-(methylsulfonyl)piperidin-3-yl)amino)-2-(((tetrahydro-2H-pyran-4-yl)thio)methyl)quinazolin-4(3H)-one]",> 6.00
13,"O=c1[nH]c(CS[C@H]2CC[C@H](O)CC2)nc2cc(NC3CCC3)ccc12 [Example 194, 7-(cyclobutylamino)-2-((((1R,4R)-4-hydroxycyclohexyl)thio)methyl)quinazolin-4(3H)-one]",> 6.00
14,"CS(=O)(=O)N1CC(Nc2ccc3c(=O)[nH]c(CSC4CCOCC4)nc3c2)C1 [Example 195, 7-((1-(methylsulfonyl)azetidin-3-yl)amino)-2-(((tetrahydro-2H-pyran-4-yl)thio)methyl)quinazolin-4(3H)-one]",> 6.00
15,"CS(=O)(=O)N1CCC[C@@H](Nc2ccc3c(=O)[nH]c(CSC4CCNCC4)nc3c2)C1 [Example 196, (R)-7-((1-(methylsulfonyl)piperidin-3-yl)amino)-2-((piperidin-4-ylthio)methyl)quinazolin-4(3H)-one]",> 6.00
16,"O=c1[nH]c(CSC2CCOCC2)nc2cc(OC3CCCC3)ccc12 [Example 197, 7-(cyclopentyloxy)-2-(((tetrahydro-2H-pyran-4-yl)thio)methyl)quinazolin-4(3H)-one]",> 6.00
17,"Cc1cccc2c(=O)[nH]c(CSC3CCCOCC3)nc12 (centres unmarked) [Example 198, 8-methyl-2-((oxepan-4-ylthio)methyl)quinazolin-4(3H)-one]",5.00 to 6.00
18,"O=c1[nH]c(CS[C@H]2CC[C@H](O)CC2)nc2cc(NC3CCCC3)cc(C(F)(F)F)c12 [Example 199, 7-(cyclopentylamino)-2-((((1R,4R)-4-hydroxycyclohexyl)thio)methyl)-5-(trifluoromethyl)quinazolin-4(3H)-one]",> 6.00
19,"O=c1[nH]c(CSC2CCNCC2)nc2cc(NC3CCC3)ccc12 [Example 200, 7-(cyclobutylamino)-2-((piperidin-4-ylthio)methyl)quinazolin-4(3H)-one]",> 6.00

row,SMILES,pIC50
1,"CS(=O)(=O)N1CCC[C@@H](Nc2ccc3c(=O)[nH]c(CSC4CCOCC4)nc3n2)C1 [Example 201, (R)-7-((1-(methylsulfonyl)piperidin-3-yl)amino)-2-(((tetrahydro-2H-pyran-4-yl)thio)methyl)pyrido[2,3-d]pyrimidin-4(3H)-one]",> 6.00
2,"CC(C)Cc1ccc2c(=O)[nH]c(CSC3CCOCC3)nc2c1 [Example 202, 7-Isobutyl-2-(((tetrahydro-2H-pyran-4-yl)thio)methyl)quinazolin-4(3H)-one]",5.00 to 6.00
3,"Cc1cc(NC2CCCC2)cc2nc(CSC3CCOCC3)[nH]c(=O)c12 [Example 203, 7-(Cyclopentylamino)-5-methyl-2-(((tetrahydro-2H-pyran-4-yl)thio)methyl) quinazolin-4(3H)-one]",> 6.00
4,"Cc1cccc2c(=O)[nH]c(CS[C@H]3CC[C@@H](C(N)=O)CC3)nc12 [Example 204, cis-4-(((8-Methyl-4-oxo-3,4-dihydroquinazolin-2-yl)methyl)thio)cyclohexane-1-carboxamide]",5.00 to 6.00
5,"Cc1cccc2c(=O)[nH]c(CS[C@H]3CC[C@H](C(N)=O)CC3)nc12 [Example 205, trans-4-(((8-Methyl-4-oxo-3,4-dihydroquinazolin-2-yl)methyl)thio)cyclohexane-1-carboxamide]",> 6.00
6,"O=c1[nH]c(CSC2CCNCC2)nc2cc(NC3CCCC3)cc(Cl)c12 [Example 206, 5-Chloro-7-(cyclopentylamino)-2-((piperidin-4-ylthio)methyl)quinazolin-4(3H)-one Hydrochloride]",> 6.00
7,"COc1cc(NC2CCCC2)cc2nc(CSC3CCOCC3)[nH]c(=O)c12 [Example 207, 7-(Cyclopentylamino)-5-methoxy-2-(((tetrahydro-2H-pyran-4-yl)thio)methyl)quinazolin-4(3H)-one]",< 5.00
8,"COC(=O)N1CCC(SCc2nc3cc(NC4CCCC4)ccc3c(=O)[nH]2)CC1 [Example 208, Methyl 4-(((7-(cyclopentylamino)-4-oxo-3,4-dihydroquinazolin-2-yl)methyl)thio)piperidine-1-carboxylate]",> 6.00
9,"Cc1cccc2c(=O)[nH]c(CS[C@H]3CC[C@H](CC(N)=O)CC3)nc12 [Example 209, 2-((trans)-4-(((8-Methyl-4-oxo-3,4-dihydroquinazolin-2-yl)methyl)thio)cyclohexyl) acetamide]",> 6.00
10,"O=c1[nH]c(CS[C@@H]2CCNC[C@H]2F)nc2cc(NC3CCCC3)cc(F)c12 [Example 211b, 7-(Cyclopentylamino)-5-fluoro-2-((((3R,4R)-3-fluoropiperidin-4-yl)thio)methyl)quinazolin-4(3H)-one]",> 6.00
11,"O=c1[nH]c(CS[C@@H]2CCNC[C@@H]2F)nc2cc(NC3CCCC3)cc(F)c12 [Example 213b, 7-(cyclopentylamino)-5-fluoro-2-((((3S,4R)-3-fluoropiperidin-4-yl)thio)methyl)quinazolin-4(3H)-one]",> 6.00
12,"O=C(CO)N1CCC(SCc2nc3cc(NC4CCCC4)cc(F)c3c(=O)[nH]2)CC1 [Example 214, 7-(Cyclopentylamino)-5-fluoro-2-(((1-(2-hydroxyacetyl)piperidin-4-yl)thio)methyl)quinazolin-4(3H)-one]",> 6.00
13,"O=c1[nH]c(CSC2CCCCC2)nc2cc(NC3CCCC3)cc(F)c12 [Example 215, 2-((Cyclohexylthio)methyl)-7-(cyclopentylamino)-5-fluoroquinazolin-4(3H)-one]",> 6.00
14,"O=c1[nH]c(CS[C@H]2CC[C@@H](C(=O)O)CC2)nc2cc(NC3CCCC3)cc(F)c12 [Example 216, cis-4-(((7-(Cyclopentylamino)-5-fluoro-4-oxo-3,4-dihydroquinazolin-2-yl)methyl)thio)cyclohexane-1-carboxylic acid]",5.00 to 6.00
15,"O=c1[nH]c(CS[C@H]2CC[C@H](C(=O)O)CC2)nc2cc(NC3CCCC3)cc(F)c12 [Example 217, trans-4-(((7-(Cyclopentylamino)-5-fluoro-4-oxo-3,4-dihydroquinazolin-2-yl)methyl)thio)cyclohexane-1-carboxylic acid]",> 6.00
16,"NC(=O)[C@H]1CC[C@H](SCc2nc3cc(NC4CCCC4)cc(F)c3c(=O)[nH]2)CC1 [Example 218, trans-4-(((7-(Cyclopentylamino)-5-fluoro-4-oxo-3,4-dihydroquinazolin-2-yl)methyl)thio)cyclohexane-1-carboxamide]",> 6.00
17,"O=c1[nH]c(CSC2CCOCC2)nc2cc(OCC3CC3)ccc12 [Example 219, 7-(Cyclopropylmethoxy)-2-(((tetrahydro-2H-pyran-4-yl)thio)methyl)quinazolin-4(3H)-one]",> 6.00
18,"CN(C)C(=O)N1CCC(SCc2nc3cc(NC4CCCC4)cc(F)c3c(=O)[nH]2)CC1 [Example 220, 4-(((7-(Cyclopentylamino)-5-fluoro-4-oxo-3,4-dihydroquinazolin-2-yl)methyl)thio)-N,N-dimethylpiperidine-1-carboxamide]",> 6.00
19,"O=c1[nH]c(CSC2CCOCC2)nc2cc(NC3CCCC3)cc(CO)c12 [Example 224, 7-(Cyclopentylamino)-5-(hydroxymethyl)-2-(((tetrahydro-2H-pyran-4-yl)thio)methyl)quinazolin-4(3H)-one]",5.00 to 6.00
